From US20170239212A1, “[…] AND USE THEREOF AS ANTIVIRAL AGENTS” (priority 2014, published 2017) come the findings set out here.

Series [1] has as its system HIV long terminal repeat (LTR) promoter. Nature of the series: HOS LTR stimulation assay (luciferase reporter). It is filed as cell-based. Conditions: HOS cells; for Max signal (% of control): LTR-luciferase signal; for EC50: LTR-luciferase, incubated 24, 48 and 72 hours (time of the listed values not stated), read-out: EC50; for Conc (uM) at Max: concentration at maximal LTR-luciferase signal. Here is the method: In the assay, non T cell derived human osteosarcoma (HOS) cells are transfected with a luciferase reporter under control of an HIV long terminal repeat (LTR) promoter. Compounds that stimulate the HIV LTR promoter will produce luciferase in a dose dependent manner.
(§1) Specifically, EC50 and CC50 values were determined in parallel using 10 concentrations of compound from 3 fold serial dilutions starting a 5 uM as the highest concentration. Cells and media were added to compounds with a final concentration of DMSO of 1% and incubated at 37° C., 5% CO2 for 24, 48 and 72 hours. EC50 was measured by induced luciferase activity detected by the use of the Steady-Glo® Luciferase reagent (PROMEGA) with an EnVision (Perkin-Elmer) plate reader. CC50 was determined by the dose dependent knock down of cellular ATP detected by the use of CellTiter-Glo® Luminescent Cell Viability reagent (PROMEGA) with an EnVision (Perkin-Elmer) plate reader.
The error bars represent the average and the standard error of the mean of at least three independent experiments.
A general note: Reporter assays use an easily measured gene product as a stand-in for the process of interest.

Series [2] has as its system human osteosarcoma (HOS) cells. Briefly: HOS cell viability (CellTiter-Glo, cellular ATP). It is filed as cell-based. More on the design: unit not given here. Conditions: knock down of cellular ATP. Here is the method: as §1
A general note: In ATP-based viability assays light output follows the ATP content of the culture.

Series [3] has as its target HIV long terminal repeat (LTR) promoter. Briefly: in vitro. It is filed as cell-based. Conditions: Jurkat cells; for EC50: LTR-luciferase, incubated 24, 48 and 72 hours (time of the listed values not stated); for selectivity ratio: human. Here is the method: as §1, with “The compounds were also tested in the T cell derived Jurkat cell line transfected with a luciferase reporter under control of an HIV long terminal repeat (LTR) promoter. Specifically,” for “Specifically,”

Another series relates to Jurkat cell line. Briefly: in vitro. The series is classed as cell-based. Particulars: Jurkat cells, knock down of cellular ATP. Here is the method:
as §1, with “The compounds were also tested in the T cell derived Jurkat cell line transfected with a luciferase reporter under control of an HIV long terminal repeat (LTR) promoter. Specifically,” for “Specifically,”

A short description of a further series: in vitro. The series is classed as cell-based. Particulars: human; Jurkat cells, knock down of cellular ATP. Here is the method:
as §1, with “The compounds were also tested in the T cell derived Jurkat cell line transfected with a luciferase reporter under control of an HIV long terminal repeat (LTR) promoter. Specifically,” for “Specifically,”

The target of series [4] is mouse recombinant isozyme PKCα (Mus musculus, UniProt P20444). Briefly: [3H]PDBu binding assay (polyethylene glycol precipitation). Conditions: calcium and phosphatidylserine present, 2 nM [3H]PDBu, read-out: Ki (inhibitory dissociation constant, displacement of [3H]PDBu). Here is the method: [^3H]PDBu Binding Assay. The inhibitory dissociation constant (Ki) of each bryologue ligand was determined by the ability of the ligand to displace bound [20-^3H]phorbol 12,13-dibutyrate (PDBu) from mouse recombinant isozyme PKCα in the presence of calcium and phosphatidylserine, using a polyethylene glycol precipitation assay developed in our laboratory as described elsewhere. Briefly, the assay mixture (250 μL) contained 50 mM Tris-HCl (pH 7.4 at room temperature), 100 μg/mL phosphatidylserine, 0.1 mM Ca^2+, 4 mg/mL bovine immunoglobulin G and 0.003% Tx-100, 2 nM [^3H]PDBu and various concentrations of the competing ligand. […] The radioactivity was determined by scintillation counting, using Cytoscint (ICN, Costa Mesa, Calif.). Specific binding was calculated as the difference between total and nonspecific PDBu binding. The Inhibitory dissociation constants (Ki) were calculated using the method previously described by Blumberg and Lewin.
The inhibitory dissociation constant (Ki) of MERLE 28 was determined by the ability of the ligand to displace bound [20-^3H]phorbol 12,13-dibutyrate (PDBu) from mouse recombinant isozyme PKCα in the presence of calcium and phosphatidylserine, using a polyethylene glycol precipitation assay previously described by Blumberg and Lewin. […] The radioactivity was determined by scintillation counting, using Cytoscint (ICN, Costa Mesa, Calif.). […]
A general note: Loss of bound radioactivity is the signal in a displacement assay; it reports binding, not function.

As a reminder, the EC50 is the concentration needed to bring the measured effect to its halfway point. One may read the CC50 as the concentration at which the toxic effect on the cells reaches its halfway point. In general, Ki refers to the dissociation constant of the complex between target and ligand, obtained from inhibition or displacement.

Turning to `COC(=O)/C=C1/C[C@H]2C[C@]3(O)O[C@H](C[C@@H](O)CC(=O)O[C@@H]([C@@H](C)O)C[C@@H]4C/C(=C\C(=O)OC)[C@H](OC(C)=O)[C@@](O)(O4)C(C)(C)/C=C/[C@@H](C1)O2)C[C@H](OC(C)=O)C3(C)C` [Bryostatin 7], in series [1], the “Max signal (% of control)” value is given as 250 % of control, the EC50 turned out to be 6 nM and the “Conc (uM) at Max” value came to 0.07 µM. Besides, in series [2], the CCEC50 is on record as 6.24. Moreover, a half-maximal response in series [3] (EC50) required 1 nM. Besides, in series [3] (ratio of the CC50 to the EC50), the “Selectivity (CC50:EC50)” value worked out at 4.6. Besides, half-maximal cytotoxicity in the series on Jurkat cell line (CC50) was put at 4.6 nM.
Take `C=C1C[C@@H]2C[C@@H]3CC(=C)C[C@H](/C=C/C(C)(C)[C@]4(O)O[C@@H](C/C(=C\C(=O)OC)[C@@H]4OC(=O)/C=C/C=C/CCC)C[C@H]([C@@H](C)O)OC(=O)C[C@H](O)C[C@H](C1)O2)O3` [MERLE 23]: in series [1], the “Max signal (% of control)” value was 166 % of control and the “Conc (uM) at Max” value is 0.07 µM. In addition, in series [1] (Human immunodeficiency virus 1), the EC50 stood at 2 nM. The same molecule yielded a CCEC50 in series [2] of 39.57. The same molecule showed a 50% effective concentration (EC50) in series [3] (Human immunodeficiency virus 1) of 0.2 nM. Further, in series [3] (ratio of the CC50 to the EC50), the selectivity ratio is 25. Moreover, the 50% cytotoxic concentration (CC50) in the series “in vitro” is 5 nM.
Consider `C=C1C[C@H]2C[C@H]3C[C@@H](OC(C)=O)C[C@@H](C[C@@H](O)CC(=O)O[C@@H]([C@@H](C)O)C[C@@H]4C/C(=C\C(=O)OC)[C@H](OC(=O)CCCCCCC)[C@@](O)(O4)C(C)(C)/C=C/[C@@H](C1)O2)O3` [MERLE 27], for which, in series [4], the Ki is 3 ± 0.06 nM.
Turning to `CC(=O)O[C@@]12C[C@@H](C)[C@@]3(O)[C@@H](C=C(CO)C[C@]4(O)C(=O)C(C)=C[C@@H]34)[C@@H]1C2(C)C` [Prostratin], in series [1], the “Max signal (% of control)” value is on record as 274 % of control. Further, the “Conc (uM) at Max” value in series [1] turned out to be 27.78 µM. Moreover, the EC50 amounted to 1080 nM in series [1] (Human immunodeficiency virus 1) and 130 nM in series [3] (Human immunodeficiency virus 1). In series [2], this molecule came in with a CCEC50 of more than 50. Also, the selectivity ratio in series [3] (ratio of the CC50 to the EC50) came out at 2.8. Also, in the series “in vitro”, the CC50 was 370 nM.
